Measured values published in patent publication US11969428B2, “Methods and pharmaceutical compositions for treating lymphoid malignancy” (priority 2011, dated 2024).

Columns and labels:
Assay in all cases: Ambit KinomeScan screening
Type in all cases: binding
Conditions in all cases: CAL-130 10 μM
[1] = target: T1, ACVRL1 (Homo sapiens, UniProt P37023)
T1 construct: purchased Ambit (KinomeScan screening)
Summary of the method: (§1)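 Here, % of control binding was determined for tagged kinases captured by an immobilized ligand in the presence of 10 μM CAL-130. Stronger interactions give lower percentages.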

[2] = target: T2, ADCK3 (Homo sapiens, UniProt Q8NI60)
T2 construct: purchased Ambit (KinomeScan screening)
Summary of the method: as §1

[3] = target: T3, ARK5 (Homo sapiens, UniProt O60285)
T3 construct: purchased Ambit (KinomeScan screening service)
Summary of the method: as §1

[4] = target: T4, CAMK2D (Homo sapiens, UniProt Q13557)
T4 construct: purchased Ambit (KinomeScan screening)
Summary of the method: as §1

[5] = target: T5, CDC2L1 (Homo sapiens, UniProt P21127)
T5 construct: purchased Ambit (KinomeScan screening)
Summary of the method: as §1

[6] = target: T6, CSNK1A1L (Homo sapiens, UniProt Q8N752)
T6 construct: purchased Ambit (KinomeScan screening service)
Summary of the method: as §1

[7] = target: T7, CSNK1G1 (Homo sapiens, UniProt Q9HCP0)
T7 construct: purchased Ambit (KinomeScan screening service)
Summary of the method: as §1

[8] = target: T8, DCAMKL3 (Homo sapiens, UniProt Q9C098)
T8 construct: unspecified tag ("tagged kinases"); purchased Ambit (KinomeScan screening service)
Summary of the method: as §1

[9] = target: T9, DYRK1A (Homo sapiens, UniProt Q13627)
T9 construct: unspecified tag ("tagged kinases"); purchased Ambit (KinomeScan screening service)
Summary of the method: as §1

[10] = target: T10, EGFR(G719C) (Homo sapiens, UniProt P00533, G719C)
T10 construct: unspecified tag; purchased Ambit (KinomeScan screening service)
Summary of the method: as §1

[11] = target: T11, EGFR(L858R) (Homo sapiens, UniProt P00533, L858R)
T11 construct: unspecified tag; purchased Ambit (KinomeScan screening service)
Summary of the method: as §1

[12] = target: T12, EGFR(L858R, T790M) (Homo sapiens, UniProt P00533, L858R/T790M)
T12 construct: unspecified tag; purchased Ambit (KinomeScan screening service)
Summary of the method: as §1

[13] = target: T13, EPHA4 (Homo sapiens, UniProt P54764)
T13 construct: purchased Ambit (KinomeScan screening service)
Summary of the method: as §1

[14] = target: T14, EPHB1 (Homo sapiens, UniProt P54762)
T14 construct: purchased Ambit (KinomeScan screening service)
Summary of the method: as §1

[15] = target: T15, EPHB6 (Homo sapiens, UniProt O15197)
T15 construct: purchased Ambit (KinomeScan screening service)
Summary of the method: as §1

[16] = target: T16, FGFR2 (Homo sapiens, UniProt P21802)
T16 construct: unspecified tag; purchased Ambit (KinomeScan screening service)
Summary of the method: as §1

[17] = target: T17, GSK3B (Homo sapiens, UniProt P49841)
T17 construct: unspecified tag ('tagged kinases'); purchased Ambit (KinomeScan screening service)
Summary of the method: as §1

[18] = target: T18, HIPK4 (Homo sapiens, UniProt Q8NE63)
T18 construct: Ambit (KinomeScan screening)
Summary of the method: as §1

[19] = target: T19, ITK (Homo sapiens, UniProt Q08881)
T19 construct: purchased Ambit (KinomeScan screening)
Summary of the method: as §1

[20] = target: T20, KIT (Homo sapiens, UniProt P10721)
T20 construct: purchased Ambit (KinomeScan screening)
Summary of the method: as §1

[21] = target: T21, LOK (Homo sapiens, UniProt O94804)
T21 construct: unspecified tag ('tagged kinases'); purchased Ambit (KinomeScan screening service)
Summary of the method: as §1

[22] = target: T22, MAP4K3 (Homo sapiens, UniProt Q8IVH8)
T22 construct: Ambit (KinomeScan screening)
Summary of the method: as §1

[23] = target: T23, MEK4 (Homo sapiens, UniProt P45985)
T23 construct: purchased Ambit (KinomeScan screening)
Summary of the method: as §1

[24] = target: T24, MELK (Homo sapiens, UniProt Q14680)
T24 construct: purchased Ambit (KinomeScan screening)
Summary of the method: as §1

[25] = target: T25, MET (Homo sapiens, UniProt P08581)
T25 construct: purchased Ambit (KinomeScan screening)
Summary of the method: as §1

[26] = target: T26, NEK9 (Homo sapiens, UniProt Q8TD19)
T26 construct: purchased Ambit (KinomeScan screening service)
Summary of the method: as §1

[27] = target: T27, PAK4 (Homo sapiens, UniProt O96013)
T27 construct: tag (kind not specified); purchased Ambit (KinomeScan screening service)
Summary of the method: as §1

[28] = target: T28, PHKG1 (Homo sapiens, UniProt Q16816)
T28 construct: unspecified tag ('tagged kinases'); purchased Ambit (KinomeScan screening)
Summary of the method: as §1

[29] = target: T29, PIM2 (Homo sapiens, UniProt Q9P1W9)
T29 construct: unspecified tag; purchased Ambit (KinomeScan screening panel)
Summary of the method: as §1

[30] = target: T30, PRKCE (Homo sapiens, UniProt Q02156)
T30 construct: purchased Ambit (KinomeScan screening service)
Summary of the method: as §1

[31] = target: T31, RIPK4 (Homo sapiens, UniProt P57078)
T31 construct: unspecified tag (tagged kinase); purchased Ambit (KinomeScan screening)
Summary of the method: as §1

[32] = target: T32, RPS6KA6 (Homo sapiens, UniProt Q9UK32)
T32 construct: tag, kind not specified; purchased Ambit (KinomeScan screening service)
Summary of the method: as §1

[33] = target: T33, SRPK2 (Homo sapiens, UniProt P78362)
T33 construct: purchased Ambit (KinomeScan screening service)
Summary of the method: as §1

[34] = target: T34, STK35 (Homo sapiens, UniProt Q8TDR2)
T34 construct: tag (kind not specified); purchased Ambit (KinomeScan screening service)
Summary of the method: as §1

[35] = target: T35, STK36 (Homo sapiens, UniProt Q9NRP7)
T35 construct: tag (kind not specified); purchased Ambit (KinomeScan screening service)
Summary of the method: as §1

[36] = target: T36, VEGFR2 (Homo sapiens, UniProt P35968)
T36 construct: tag, kind not specified; purchased Ambit (KinomeScan screening service)
Summary of the method: as §1

Measured: Percent of Control Binding

T30 sequence (Q02156 whole entry): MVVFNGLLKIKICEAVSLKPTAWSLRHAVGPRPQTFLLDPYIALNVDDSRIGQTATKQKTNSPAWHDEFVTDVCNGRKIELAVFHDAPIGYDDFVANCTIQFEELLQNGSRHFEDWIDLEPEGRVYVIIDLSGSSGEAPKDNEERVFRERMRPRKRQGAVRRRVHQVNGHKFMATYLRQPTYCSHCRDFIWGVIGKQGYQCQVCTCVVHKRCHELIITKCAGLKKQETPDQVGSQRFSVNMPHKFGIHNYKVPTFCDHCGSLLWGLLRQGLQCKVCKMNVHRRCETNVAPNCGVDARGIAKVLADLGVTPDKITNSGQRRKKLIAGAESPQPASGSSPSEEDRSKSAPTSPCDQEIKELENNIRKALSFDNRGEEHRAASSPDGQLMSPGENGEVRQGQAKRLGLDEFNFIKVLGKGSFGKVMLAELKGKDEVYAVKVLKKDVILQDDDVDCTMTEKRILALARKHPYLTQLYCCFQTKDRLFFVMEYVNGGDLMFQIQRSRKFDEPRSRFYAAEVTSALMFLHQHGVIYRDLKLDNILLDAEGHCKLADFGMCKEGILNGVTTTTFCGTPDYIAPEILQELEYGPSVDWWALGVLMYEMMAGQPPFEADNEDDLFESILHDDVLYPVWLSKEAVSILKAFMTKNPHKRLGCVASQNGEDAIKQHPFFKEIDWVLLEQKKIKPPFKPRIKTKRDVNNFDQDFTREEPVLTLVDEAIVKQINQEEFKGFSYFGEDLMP
T15 sequence (O15197 32-1021): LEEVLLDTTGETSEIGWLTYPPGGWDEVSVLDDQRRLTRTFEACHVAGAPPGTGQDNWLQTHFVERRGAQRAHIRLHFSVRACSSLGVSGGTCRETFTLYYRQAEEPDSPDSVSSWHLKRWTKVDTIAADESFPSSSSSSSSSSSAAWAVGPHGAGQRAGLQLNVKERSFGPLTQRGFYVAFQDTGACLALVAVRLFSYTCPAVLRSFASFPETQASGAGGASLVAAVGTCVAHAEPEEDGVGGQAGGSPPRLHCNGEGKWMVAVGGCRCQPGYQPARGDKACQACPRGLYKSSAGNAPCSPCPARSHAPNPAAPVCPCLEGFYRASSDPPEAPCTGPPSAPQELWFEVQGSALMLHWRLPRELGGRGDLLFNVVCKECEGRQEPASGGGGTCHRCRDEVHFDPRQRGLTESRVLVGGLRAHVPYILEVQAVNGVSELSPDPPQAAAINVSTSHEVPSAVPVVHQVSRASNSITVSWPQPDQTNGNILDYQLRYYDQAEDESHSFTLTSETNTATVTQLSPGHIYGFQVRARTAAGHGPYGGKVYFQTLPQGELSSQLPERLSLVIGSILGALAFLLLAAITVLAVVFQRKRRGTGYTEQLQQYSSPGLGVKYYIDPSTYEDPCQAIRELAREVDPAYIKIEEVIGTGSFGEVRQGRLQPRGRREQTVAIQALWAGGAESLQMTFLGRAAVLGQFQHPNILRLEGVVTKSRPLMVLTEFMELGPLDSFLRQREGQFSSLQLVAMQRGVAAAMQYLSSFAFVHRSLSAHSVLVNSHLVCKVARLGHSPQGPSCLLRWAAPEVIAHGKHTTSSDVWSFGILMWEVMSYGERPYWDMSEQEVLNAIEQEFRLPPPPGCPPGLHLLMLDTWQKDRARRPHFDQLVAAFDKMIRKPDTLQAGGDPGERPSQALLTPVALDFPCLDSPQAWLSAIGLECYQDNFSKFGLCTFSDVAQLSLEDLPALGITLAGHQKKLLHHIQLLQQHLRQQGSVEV
T29 sequence (Q9P1W9 whole entry): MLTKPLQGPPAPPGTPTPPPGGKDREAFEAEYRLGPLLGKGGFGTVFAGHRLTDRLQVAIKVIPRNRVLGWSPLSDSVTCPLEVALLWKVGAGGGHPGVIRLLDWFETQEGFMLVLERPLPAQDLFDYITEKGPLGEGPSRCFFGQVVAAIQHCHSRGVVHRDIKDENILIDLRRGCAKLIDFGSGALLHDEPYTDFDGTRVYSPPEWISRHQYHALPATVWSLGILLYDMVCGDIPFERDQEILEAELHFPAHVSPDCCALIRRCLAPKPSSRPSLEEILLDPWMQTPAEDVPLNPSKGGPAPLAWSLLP
T19 sequence (Q08881 whole entry): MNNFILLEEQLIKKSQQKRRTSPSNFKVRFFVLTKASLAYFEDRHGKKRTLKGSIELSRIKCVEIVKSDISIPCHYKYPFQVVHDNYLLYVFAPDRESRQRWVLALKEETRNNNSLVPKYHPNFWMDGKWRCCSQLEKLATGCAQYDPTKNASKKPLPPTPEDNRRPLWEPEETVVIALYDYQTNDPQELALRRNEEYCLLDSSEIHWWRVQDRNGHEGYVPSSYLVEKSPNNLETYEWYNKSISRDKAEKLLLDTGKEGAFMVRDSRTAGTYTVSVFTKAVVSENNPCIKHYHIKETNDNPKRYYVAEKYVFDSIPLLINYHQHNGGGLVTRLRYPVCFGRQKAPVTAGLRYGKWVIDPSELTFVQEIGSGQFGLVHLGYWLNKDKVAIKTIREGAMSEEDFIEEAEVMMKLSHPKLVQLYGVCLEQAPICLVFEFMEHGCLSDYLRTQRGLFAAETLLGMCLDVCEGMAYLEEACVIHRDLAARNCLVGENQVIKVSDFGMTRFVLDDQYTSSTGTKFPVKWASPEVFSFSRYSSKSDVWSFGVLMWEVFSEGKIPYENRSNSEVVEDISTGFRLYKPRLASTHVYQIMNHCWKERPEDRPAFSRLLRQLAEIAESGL
T17 sequence (P49841 whole entry): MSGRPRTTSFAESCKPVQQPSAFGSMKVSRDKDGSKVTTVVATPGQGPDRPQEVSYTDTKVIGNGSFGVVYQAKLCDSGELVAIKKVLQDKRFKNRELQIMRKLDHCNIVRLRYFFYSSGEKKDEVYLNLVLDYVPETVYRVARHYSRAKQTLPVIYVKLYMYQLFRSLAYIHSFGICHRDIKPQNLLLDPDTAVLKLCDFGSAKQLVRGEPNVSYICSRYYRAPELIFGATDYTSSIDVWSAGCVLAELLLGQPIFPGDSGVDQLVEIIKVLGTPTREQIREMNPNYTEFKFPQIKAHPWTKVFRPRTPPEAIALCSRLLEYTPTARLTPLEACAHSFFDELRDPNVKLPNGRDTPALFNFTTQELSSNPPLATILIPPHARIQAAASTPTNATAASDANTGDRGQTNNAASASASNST
T33 sequence (P78362 whole entry): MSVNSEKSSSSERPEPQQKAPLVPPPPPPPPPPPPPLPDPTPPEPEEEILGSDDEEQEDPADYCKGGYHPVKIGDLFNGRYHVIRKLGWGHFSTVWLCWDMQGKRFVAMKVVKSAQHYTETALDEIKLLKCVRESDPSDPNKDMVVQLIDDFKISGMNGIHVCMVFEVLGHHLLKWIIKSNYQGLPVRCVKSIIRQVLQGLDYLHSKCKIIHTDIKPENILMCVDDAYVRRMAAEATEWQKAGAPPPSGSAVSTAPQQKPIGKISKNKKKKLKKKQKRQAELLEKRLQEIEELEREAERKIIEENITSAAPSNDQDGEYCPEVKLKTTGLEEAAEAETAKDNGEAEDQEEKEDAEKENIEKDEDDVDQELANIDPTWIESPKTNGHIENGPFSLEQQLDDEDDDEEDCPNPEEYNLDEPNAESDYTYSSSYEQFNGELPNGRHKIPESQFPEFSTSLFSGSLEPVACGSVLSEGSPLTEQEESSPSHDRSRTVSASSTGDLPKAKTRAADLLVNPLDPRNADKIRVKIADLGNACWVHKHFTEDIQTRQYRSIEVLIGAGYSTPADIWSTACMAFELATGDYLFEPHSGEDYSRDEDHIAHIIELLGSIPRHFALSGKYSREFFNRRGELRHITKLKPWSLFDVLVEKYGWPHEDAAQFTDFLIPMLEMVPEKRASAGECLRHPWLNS
T16 sequence (P21802 22-821): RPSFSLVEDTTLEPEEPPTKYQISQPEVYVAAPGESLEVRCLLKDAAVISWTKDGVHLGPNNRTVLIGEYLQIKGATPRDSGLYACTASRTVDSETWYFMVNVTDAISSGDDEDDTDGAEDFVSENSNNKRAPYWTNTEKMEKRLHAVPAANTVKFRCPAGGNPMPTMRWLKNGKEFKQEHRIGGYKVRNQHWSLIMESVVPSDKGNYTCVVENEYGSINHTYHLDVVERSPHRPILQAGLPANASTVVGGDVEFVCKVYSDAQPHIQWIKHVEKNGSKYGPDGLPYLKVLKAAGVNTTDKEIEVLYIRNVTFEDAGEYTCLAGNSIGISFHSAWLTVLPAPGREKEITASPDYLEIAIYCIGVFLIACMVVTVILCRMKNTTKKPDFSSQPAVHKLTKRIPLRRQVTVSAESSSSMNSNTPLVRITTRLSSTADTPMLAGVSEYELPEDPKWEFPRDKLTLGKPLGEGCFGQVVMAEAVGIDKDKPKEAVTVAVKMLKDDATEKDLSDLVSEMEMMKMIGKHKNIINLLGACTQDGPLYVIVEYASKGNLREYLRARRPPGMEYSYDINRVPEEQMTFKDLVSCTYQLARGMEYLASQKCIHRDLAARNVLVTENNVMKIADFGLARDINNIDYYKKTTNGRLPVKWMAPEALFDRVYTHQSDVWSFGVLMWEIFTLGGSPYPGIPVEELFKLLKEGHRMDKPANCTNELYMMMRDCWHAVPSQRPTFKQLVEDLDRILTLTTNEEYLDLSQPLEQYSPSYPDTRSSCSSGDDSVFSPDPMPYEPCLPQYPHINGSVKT
T23 sequence (P45985 whole entry): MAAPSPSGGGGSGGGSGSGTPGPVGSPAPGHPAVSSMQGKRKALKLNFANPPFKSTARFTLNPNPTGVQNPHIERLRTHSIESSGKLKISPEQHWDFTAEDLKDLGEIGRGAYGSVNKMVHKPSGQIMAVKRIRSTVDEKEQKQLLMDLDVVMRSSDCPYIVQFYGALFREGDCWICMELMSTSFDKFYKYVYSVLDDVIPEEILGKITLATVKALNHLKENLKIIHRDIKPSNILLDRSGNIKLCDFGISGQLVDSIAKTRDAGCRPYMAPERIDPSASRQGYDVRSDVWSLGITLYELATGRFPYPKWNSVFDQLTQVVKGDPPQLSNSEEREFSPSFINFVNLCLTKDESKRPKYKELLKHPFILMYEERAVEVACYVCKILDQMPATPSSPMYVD

Cc1ccccc1-n1c(C(C)Nc2nc(N)nc3nc[nH]c23)nc2cccc(C)c2c1=O (stereo not drawn) [CAL-130]
100%: [1] | [2] | [3] | [4] | [5] | [6] | [7] | [8] | [9] | [10] | [11] | [12] | [13] | [14] | [15] | [16] | [17] | [18] | [19] | [20] | [21] | [22] | [23] | [24] | [25] | [26] | [27] | [28] | [29] | [30] | [31] | [32] | [33] | [34] | [35] | [36]
